Experimental findings from patent publication US7741319B2 (Spirogen Limited, priority 2004, dated 2010) are described below.

SMILES strings stand for the structures.

The test system of this experiment is K562 human chronic myeloid leukaemia cells. Put plainly: In vitro cytotoxicity, MTT assay in K562 cells. The class given is cell-based. How it is done:
K562 human chronic myeloid leukaemia cells were maintained in RPM1 1640 medium supplemented with 10% fetal calf serum and 2 mM glutamine at 37° C. in a humidified atmosphere containing 5% CO2 and were incubated with a specified dose of drug for 1 hour or 96 hours at 37° C. in the dark. The incubation was terminated by centrifugation (5 min, 300 g) and the cells were washed once with drug-free medium. Following the appropriate drug treatment, the cells were transferred to 96-well microtiter plates (10^4 cells per well, 8 wells per sample). Plates were then kept in the dark at 37° C. in a humidified atmosphere containing 5% CO2. The assay is based on the ability of viable cells to reduce a yellow soluble tetrazolium salt, 3-(4,5-dimethylthiazol-2-yl)-2,5-diphenyl-2H-tetrazolium bromide (MTT, Aldrich-Sigma), to an insoluble purple formazan precipitate. Following incubation of the plates for 4 days (to allow control cells to increase in number by approximately 10 fold), 20 μL of MTT solution (5 mg/mL in phosphate-buffered saline) was added to each well and the plates further incubated for 5 h. The plates were then centrifuged for 5 min at 300 g and the bulk of the medium pipetted from the cell pellet leaving 10-20 μL per well. DMSO (200 μL) was added to each well and the samples agitated to ensure complete mixing. The optical density was then read at a wavelength of 550 nm on a Titertek Multiscan ELISA plate reader, and a dose-response curve was constructed. For each curve, an IC50 value was read as the dose required to reduce the final optical density to 50% of the control value.
(Tetrazolium dyes change colour on reduction, which living cells bring about.)

With `COc1cc2c(cc1OCCCOc1cc3c(cc1OC)C(=O)N1C=C(C#Cc4ccccc4)C[C@H]1C=N3)N=C[C@@H]1CC(C#Cc3ccccc3)=CN1C2=O` [ZC-209], the IC50 (usually the point on the concentration scale where inhibition reaches its midpoint) (K562, 1 h, 1 hour incubation) is below 10 nM.
As for `C/C=C/C1=CN2C(=O)c3cc(OC)c(OC)cc3N=C[C@@H]2C1` [Compound 30q, (11aS)-7,8-Dimethoxy-2-(1-propenyl)-1,11a-dihydro-5H-pyrrolo[2,1-c][1,4]benzodiazepin-5-one], the IC50 reads like this: (K562, 96 h, 96 hour incubation period, threshold less than 10 nM) below 10 nM; (K562, 96 h, 96 hour incubation period, threshold less than 1 μM) below 1000 nM.
As to `COc1cc2c(cc1OCCCOc1cc3c(cc1OC)C(=O)N1C=C(/C=C/C(=O)N(C)C)C[C@H]1C=N3)N=C[C@@H]1CC(/C=C/C(=O)N(C)C)=CN1C2=O`, the IC50 (K562, 1 h, 1 hour incubation) is 3800 ± 440 nM.
Still for that read-out and setting: in the case of `COc1ccc(C2=CN3C(=O)c4cc(OC)c(OCCCOc5cc6c(cc5OC)C(=O)N5C=C(c7ccc(OC)cc7)C[C@H]5C=N6)cc4N=C[C@@H]3C2)cc1` [ZC-207, 1,1′-[[(Propane-1,3-diyl)dioxy]bis[(11aS)-7-methoxy-2-(p-methoxybenzene)-1,11a-dihydro-5H-pyrrolo[2,1-c][1,4]benzodiazepine-5-one]]] it was 5.3 ± 4.9 nM.
Compound `C/C=C/C1=CN2C(=O)c3cc(OC)c(OCCCOc4cc5c(cc4OC)C(=O)N4C=C(/C=C/C)C[C@H]4C=N5)cc3N=C[C@@H]2C1` [ZC-211] showed an IC50 (1 hour incubation) below 10 nM.
